The values below come from PubChem BioAssay (NCI).

Each structure is given as a SMILES string.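 Protocol summary: plate cells (96-well), add compound at 5 concentrations, incubate 48 h, interpolate endpoints linearly. TGI is the concentration that stops growth completely.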 Where only a bound is given, the exact number is not on record here.

Assay in all cases: NCI anticancer screen, dose series, 48 h
In test [1] the test system is NCI-H460 lung.
For test [2], the system named is SF-268 CNS.
For test [3], the system named is RPMI-8226 leukemia.
Test [4] concerns UACC-257 melanoma.
Test [5] has as its system IGROV1 ovarian.
Test [6] relates to HL-60(TB) leukemia.
The subject of test [7] is MDA-MB-231 breast.
Test [8] deals with 786-0 renal.
Test [9] concerns A549 NSCLC.
For test [10], the system named is SW-620 colon.
Test [11] concerns SNB-75 CNS.
In test [12] the test system is SK-MEL-5 melanoma.
Test [13] has as its system CCRF-CEM leukemia.
For test [14], the system named is NCI-H23 lung.
Test [15] concerns MALME-3M melanoma.
Test [16] relates to HOP-62 NSCLC.
The test system of test [17] is HCC-2998 colon.

With `CCOC1Oc2ccccc2-c2nc(N)ncc21` (stereo not given), the TGI in test [1] was greater than 100 µM; in test [2], greater than 100 µM; in test [3], greater than 100 µM; in test [4] it was greater than 100 µM; in test [5], greater than 100 µM; in test [6], 62.3 µM. Also, the TGI in [7], in [8], in test [9], in test [10], in test [11] and in [12] was greater than 100 µM each time. Further, the TGI in [13] and in [14] was greater than 100 µM throughout.

In the case of `O=C(O)c1ccc2[nH]c(=O)oc2c1`, the TGI in test [15], in [1], in test [16], in test [2], in [3] and in test [4] was greater than 100 µM in each case. Further, the TGI in test [5], in test [6], in test [7], in test [8], in [10] and in test [11] was greater than 100 µM throughout. The TGI in test [13] and in [14] was greater than 100 µM each time.

In the case of `O=[N+]([O-])c1ccc2nc(/C=C(\O)c3ccccc3)c(NC34CC5CC(CC(C5)C3)C4)nc2c1`, the TGI in test [15], in [1], in test [16], in [2], in test [4] and in test [5] was greater than 10 µM in each case. Besides, the TGI in test [17], in test [7], in [8], in test [10], in test [11] and in [12] was greater than 10 µM each time. This compound also displayed a TGI in [14] greater than 10 µM.

In the case of `CCOC(=O)COc1cc(-c2ccccc2)nc2cc(F)ccc12`, the TGI in [15], in test [16], in [2], in [3], in test [4] and in [5] was greater than 100 µM throughout. The TGI in test [17], in test [7], in test [8], in test [9], in test [10] and in [11] was greater than 100 µM throughout. In addition, the TGI in test [12], in test [13] and in test [14] was greater than 100 µM each time.

Regarding `Nc1nc(Cl)cc(NCC2(CO)CC=CC2)n1`, the TGI in [15], in [1], in [16], in test [2], in [4] and in test [5] was greater than 100 µM throughout. The TGI in test [17], in test [7], in [8], in test [9], in [10] and in [11] was greater than 100 µM throughout. Moreover, the TGI in test [12] and in test [13] was greater than 100 µM in each case.

On to `COC(OC)[C@@H]1OC[C@H](n2ccc(=O)[nH]c2=O)[C@H]1O`, for which the TGI in [1], in test [16], in [2], in test [3], in test [4] and in test [5] was greater than 100 µM each time. Further, the TGI in [17], in [7], in test [8], in test [9], in test [10] and in [11] was greater than 100 µM throughout. The TGI in test [12], in [13] and in [14] was greater than 100 µM each time.

Take `C[C@]12O[C@@]3(C)O[C@@]3(C)[C@]3(C)O[C@]3(C)[C@@]1(C)O2`: the TGI in test [15], in [16], in [2], in test [4], in test [7] and in test [8] was greater than 100 µM throughout. The TGI in test [9] is greater than 100 µM; in test [11], 74.6 µM; in test [12], greater than 100 µM; in test [14] it was greater than 100 µM.

Consider `CC(O)/C=C/C1OC(=O)CC1Nc1ccc(C=O)cc1` (stereo not given), for which the TGI is greater than 100 µM in test [15]; greater than 100 µM in test [1]; 77.4 µM in test [16]; greater than 100 µM in test [2]; 90.9 µM in [3]; greater than 100 µM in [4]. Besides, the TGI in test [5], in [17], in test [7], in [8], in [9] and in test [10] was greater than 100 µM each time. The TGI in [11] is greater than 100 µM; in test [12], 33.5 µM; in test [13], greater than 100 µM; in [14] it was greater than 100 µM.

Consider `CS(=O)(=O)Nc1ccc(NCc2cnc3ccc4[nH]cccc4c23)cc1`, for which the TGI in [15] was 46.6 µM; in test [1] it was greater than 100 µM; in [16], greater than 100 µM; in test [2], 61.8 µM; in [3], 31 µM; in [4], 51.9 µM. The TGI in [5] is greater than 100 µM; in test [6], 52.6 µM; in [7], 97.4 µM; in test [8], greater than 100 µM; in test [9], greater than 100 µM; in [10], greater than 100 µM. Further, the TGI in test [11] is 61.3 µM; in test [12], 28.8 µM; in test [13], 58.5 µM; in test [14] it was 59.6 µM.

Regarding `O=C(/C=C/c1ccc(O)c(O)c1)O[C@H]1CCCC[C@@H]1OC(=O)/C=C/c1ccc(O)c(O)c1`, the TGI is 32.6 µM in test [15]; greater than 100 µM in test [1]; 41.1 µM in test [16]; 38.8 µM in test [2]; greater than 100 µM in test [3]; 77 µM in test [4]. The TGI in test [5] was 55 µM; in [17], 33.7 µM; in test [7] it was greater than 100 µM; in test [8], 46 µM; in test [9], greater than 100 µM; in [10], 19.5 µM. For the same compound, the TGI is greater than 100 µM in test [11], 21.4 µM in test [12], 61 µM in test [13] and 33.7 µM in test [14].

For `NC(=S)N/N=C(/CCN1CCCC1)CC(C1=C(O)C2=CCCCC2OC1=O)c1ccccc1` (stereo not given), the TGI in [15], in test [1], in test [16], in [2], in test [3] and in test [4] was greater than 100 µM throughout. In addition, the TGI in test [5], in test [17], in test [6], in test [8], in test [9] and in test [10] was greater than 100 µM in each case. Also, the TGI in test [11], in test [12], in test [13] and in [14] was greater than 100 µM each time.

Consider `CNc1cc(Cl)ccc1C(=O)N1CCC[C@H]1CO`, for which the TGI in [15], in test [16], in [2], in test [4], in [5] and in test [6] was greater than 100 µM in each case. Further, the TGI in test [7], in test [8], in test [9], in test [10], in [11] and in test [12] was greater than 100 µM throughout. For the same compound, the TGI in [13] and in test [14] was greater than 100 µM each time.

Regarding `CN(C)c1ccc(/C=C2\C[C@H]3[C@@H]4CC=C5C[C@@H](O)CC[C@]5(C)[C@H]4CC[C@]3(C)[C@H]2O)cc1`, the TGI in test [15] is 38.4 µM; in [1], 28.9 µM; in [16], greater than 100 µM; in test [2] it was 34.8 µM; in test [3], greater than 100 µM; in test [4], 35.7 µM. The TGI in test [5] is 35.3 µM; in test [6], greater than 100 µM; in test [7], 34.5 µM; in test [8] it was 42 µM; in [9] it was 38.6 µM; in test [10] it was 67.3 µM. Besides, the TGI in test [11] was greater than 100 µM; in test [12], 34.3 µM; in test [14], 35.6 µM.

As for `Cc1[nH]c2[nH]c(=S)nc(NC(N)=S)c2c1Cc1ccccc1`, the TGI in test [1] is greater than 100 µM; in test [16], greater than 100 µM; in [2], greater than 100 µM; in [3], 55.3 µM; in [4] it was greater than 100 µM; in test [5], greater than 100 µM. The TGI in [6] is 57.4 µM; in test [7], greater than 100 µM; in [8], 76.1 µM; in test [9], greater than 100 µM; in test [10] it was greater than 100 µM; in test [11], 76.4 µM. In addition, the TGI in [12] is 26.1 µM; in [13], greater than 100 µM; in [14], greater than 100 µM.

On to `COc1cccc(C=C(C#N)C#N)c1OC`, for which the TGI in test [15], in test [1], in [16], in [2], in [3] and in [4] was greater than 100 µM each time. For the same compound, the TGI in [5], in test [17], in [6], in test [8], in [9] and in test [10] was greater than 100 µM in each case. Moreover, the TGI in test [11], in test [12], in test [13] and in [14] was greater than 100 µM in each case.

With `CCOC(=O)/C=C(\C(=O)OCC)n1cc(C)c(=O)n(Cc2cn(COCCOC(C)=O)nn2)c1=O`, the TGI in [1] stood at 30.2 µM; in [16], 38.7 µM; in test [2] it was 31.3 µM; in test [3], 18.9 µM; in test [4] it was 33.7 µM; in [5], 31.1 µM. For the same compound, the TGI in test [17] was 43 µM; in test [7] it was 40.7 µM; in test [8] it was greater than 100 µM; in test [9] it was 56.8 µM; in test [10], greater than 100 µM; in [11], 36 µM. Besides, the TGI stood at 50.5 µM in [12], 5.95 µM in test [13] and 29.8 µM in [14].

For the compound `COc1ccc(-n2nnc3c(C#N)c(C)c(-c4ccccc4)n3c2=O)cc1`, the TGI in test [15] is greater than 100 µM; in test [1], greater than 39.3 µM; in test [16], greater than 100 µM; in test [2], greater than 100 µM; in [3], greater than 100 µM; in test [4], greater than 100 µM. Besides, the TGI in test [5] was greater than 100 µM; in test [17], greater than 33.2 µM; in test [7] it was greater than 79.1 µM; in test [8], 8.24 µM; in test [9], greater than 38.8 µM; in test [10], greater than 100 µM. The values for the TGI in [11], in test [12] and in test [14] were greater than 29.2 µM, 17 µM and greater than 100 µM, respectively.

For `CCOc1cc2cnc3c4cc(OC)c(OC)cc4ccc3c2cc1OC`, the TGI in [15], in test [1], in test [16], in [2], in test [3] and in test [4] was greater than 100 µM in each case. For the same compound, the TGI in test [5], in [17], in test [6], in test [8], in [9] and in [10] was greater than 100 µM each time. Also, the TGI in test [11] is greater than 100 µM; in test [12], greater than 100 µM; in test [13] it was 88.6 µM; in [14] it was greater than 100 µM.
